For data set [1], the system named is α-glucosidase (from Saccharomyces cerevisiae). The experiment in a line: Activation (hydrolysis) of Taxifolin glucoside by an α-glucosidase preparation. As to conditions: 18 hours, 30° C., potassium phosphate buffer 0.1 M. The format is biochemical. As for the experimental part:
The reaction media were analysed by HPLC (method 2) after a 2-fold dilution of an aliquot with methanol.

The conditions of data set [2]: background statement; cited from earlier work.
A further data set is described as follows: Solubility in water. The format is physicochemical. Conditions: 25° C.

The text below walks through data of US9828407B2, “Water soluble and activable phenolic derivatives with dermocosmetic and therapeutic applications and process for preparing said derivatives” (LIBRAGEN, priority 2006, dated 2017).

Values joined by “and” are separate entries in the source; they are usually repeats but may differ in a detail not shown here. Identical values can stand only once. Like-named read-outs stand apart in the source and are kept apart here.

Broadly, the solubility is how much of the substance goes into solution per volume. Read a low solubility as little dissolved substance.

On to “taxifolin O-α-glucoside [Taxifolin glucoside]”, for which, in data set [1] (pH 7.3), the “conversion of Taxifolin glucoside in the presence of the α-glucosidase enzyme” value was “totally converted into Taxifolin”. Also, the “stability of Taxifolin glucoside in the medium without α-glucosidase enzyme” value in data set [1] (pH 7.3, no enzyme) was “remained unchanged”. Also, the “colour or odour changes on storage” value (4° C., 22° C., 37° C. and 45° C., 4 months) is recorded as “No colour or odour changes”. For the same compound, the “Measured quantity of taxifolin glucoside (in % of the initial quantity)” value by setting is: (day 0, stored at +4° C.) 100%; (day 0, stored at +22° C.) 100%; (day 0, stored at +37° C.) 100%; (day 0, stored at +45° C.) 100%; (day 9, stored at +4° C.) 100%; (day 9, stored at +22° C.) 100%. The “Measured quantity of taxifolin glucoside (in % of the initial quantity)” value is reported as 100% (day 9, stored at +37° C.); 100% (day 9, stored at +45° C.); 100% (day 23, stored at +4° C.); 100% (day 23, stored at +22° C.); 100% (day 23, stored at +37° C.); 91% (day 23, stored at +45° C.). For the same compound, the “Measured quantity of taxifolin glucoside (in % of the initial quantity)” value by setting is: (day 37, stored at +4° C.) 100%; (day 37, stored at +22° C.) 100%; (day 37, stored at +37° C.) 100%; (day 37, stored at +45° C.) 94%; (day 63, stored at +4° C.) 100%; (day 63, stored at +22° C.) 95%. Besides, the “Measured quantity of taxifolin glucoside (in % of the initial quantity)” value turned out to be 96% (day 63, stored at +37° C.); 79% (day 63, stored at +45° C.); 100% (day 118, stored at +4° C.); 100% (day 118, stored at +22° C.); 91% (day 118, stored at +37° C.); 73% (day 118, stored at +45° C.).
For `O=C1c2c(O)cc(O)cc2OC(c2ccc(O)c(O)c2)C1O` (centres unmarked) [Taxifolin, 3,5,7,3′,4′-pentahydroxyflavanone], the “solubility in aqueous solution” value in data set [2] is on record as “around 1 g/l”. In the data set “Solubility in water”, the solubility is 1190 µg/mL and 3910 µM.
